Paper PMC9005971, “Discovery of 2-(4-Acrylamidophenyl)-Quinoline-4-Carboxylic Acid Derivatives as Potent SIRT3 Inhibitors” (Frontiers in Chemistry, 2022)

How the values were obtained:
[1] = test system: THP-1, MOLM-13, SEM and MV4-11 cells; assay: Cell apoptosis analysis, MLLr leukemic cells; format: cell-based; conditions: 72 h, flow cytometry
Protocol: THP-1, MOLM-13, SEM and MV4-11 cells were treated with P6 (0.45–4 µM) or Ara-C (0.1–2.0 µM) for 72 h, collected and resuspended in 1× binding buffer. Cells were incubated with FITC Annexin V and PI double labeling for 30 min in the dark at room temperature and measured by flow cytometry.

THP-1 cells = assay: In vitro antiproliferative CCK-8 assay, THP-1; format: cell-based; conditions: Homo sapiens; for inhibition at 1 µM: dose of 1 μM, mean of three experiments, read-out: THP-1 percentage inhibitory rate
Protocol: (§1) The proliferation of THP-1, MOLM-13, SEM and MV4-11 cells was tested by CCK-8 assay. Briefly, cells were seeded in 96-well plate with about 5 × 10^3 cells in each well. The cells were treated with P6 or Ara-C (0–10 µM) after 24 h of incubation. CCK-8 reagent ([…]) was added to each well after 72 h of incubation, and cells were incubated at 37°C for 4 h. The light absorbance at 450 nm was measured by using an Opsys microplate reader (Dynex Technologirs, Chantilly, VA, United States). Results are illustrated as percent of cell viability normalized to DMSO-treated control cells.

MV4-11 cells = assay: In vitro antiproliferative CCK-8 assay, MV4-11; format: cell-based; conditions: Homo sapiens, 72 h, read-out: IC50 growth inhibition MV4-11
Protocol: as §1

MOLM-13 cells = assay: In vitro antiproliferative CCK-8 assay, MOLM-13; format: cell-based; conditions: Homo sapiens, 72 h, read-out: IC50 growth inhibition MOLM-13
Protocol: as §1

SEM cells = assay: In vitro antiproliferative CCK-8 assay, SEM; format: cell-based; conditions: 72 h, read-out: IC50 growth inhibition SEM
Protocol: as §1

SIRT2 = molecular target: T1, SIRT2 (Homo sapiens, UniProt Q8IXJ6); conditions: ref Galli et al., 2012; cited from earlier work
T1 sequence (Q8IXJ6 1-389): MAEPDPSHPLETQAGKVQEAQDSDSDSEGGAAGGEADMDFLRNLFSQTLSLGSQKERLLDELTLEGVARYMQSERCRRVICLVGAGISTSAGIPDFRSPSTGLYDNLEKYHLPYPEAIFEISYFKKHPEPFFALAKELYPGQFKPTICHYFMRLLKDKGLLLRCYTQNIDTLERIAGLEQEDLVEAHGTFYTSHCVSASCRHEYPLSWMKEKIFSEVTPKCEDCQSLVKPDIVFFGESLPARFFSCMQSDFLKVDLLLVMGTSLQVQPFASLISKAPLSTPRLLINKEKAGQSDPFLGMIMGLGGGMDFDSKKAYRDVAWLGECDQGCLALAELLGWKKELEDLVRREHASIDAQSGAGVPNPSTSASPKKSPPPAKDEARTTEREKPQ

SIRT1 = molecular target: T2, SIRT1 (Homo sapiens, UniProt Q96EB6); conditions: ref Galli et al., 2012; cited from earlier work
T2 sequence (Q96EB6 1-747): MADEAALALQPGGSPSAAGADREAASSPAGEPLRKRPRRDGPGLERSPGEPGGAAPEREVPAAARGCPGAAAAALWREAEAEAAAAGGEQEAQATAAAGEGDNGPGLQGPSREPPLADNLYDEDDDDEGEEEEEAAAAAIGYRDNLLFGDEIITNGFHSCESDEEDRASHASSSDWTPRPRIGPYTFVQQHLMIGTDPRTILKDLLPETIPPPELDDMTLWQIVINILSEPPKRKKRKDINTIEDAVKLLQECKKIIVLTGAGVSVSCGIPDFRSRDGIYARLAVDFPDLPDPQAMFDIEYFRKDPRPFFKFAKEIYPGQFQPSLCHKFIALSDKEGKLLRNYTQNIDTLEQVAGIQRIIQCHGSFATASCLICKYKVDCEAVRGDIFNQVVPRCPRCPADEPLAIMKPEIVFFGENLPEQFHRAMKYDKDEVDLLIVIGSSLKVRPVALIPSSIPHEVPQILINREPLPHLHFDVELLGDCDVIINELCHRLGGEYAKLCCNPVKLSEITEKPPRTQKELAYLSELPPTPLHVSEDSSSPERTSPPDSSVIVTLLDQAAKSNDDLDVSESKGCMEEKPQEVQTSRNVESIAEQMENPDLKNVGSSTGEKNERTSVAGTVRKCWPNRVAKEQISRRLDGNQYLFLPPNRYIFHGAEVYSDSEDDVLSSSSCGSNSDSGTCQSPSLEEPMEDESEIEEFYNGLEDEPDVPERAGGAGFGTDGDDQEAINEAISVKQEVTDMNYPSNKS

SIRT3 = molecular target: T3, SIRT3 (Homo sapiens, UniProt Q9NTG7); assay: SIRT3 enzyme inhibitory assay (fluorescence); format: biochemical; conditions: dose of 10 μM; mean of three experiments; read-out: SIRT3 percentage inhibitory rate
T3 sequence (Q9NTG7 1-399): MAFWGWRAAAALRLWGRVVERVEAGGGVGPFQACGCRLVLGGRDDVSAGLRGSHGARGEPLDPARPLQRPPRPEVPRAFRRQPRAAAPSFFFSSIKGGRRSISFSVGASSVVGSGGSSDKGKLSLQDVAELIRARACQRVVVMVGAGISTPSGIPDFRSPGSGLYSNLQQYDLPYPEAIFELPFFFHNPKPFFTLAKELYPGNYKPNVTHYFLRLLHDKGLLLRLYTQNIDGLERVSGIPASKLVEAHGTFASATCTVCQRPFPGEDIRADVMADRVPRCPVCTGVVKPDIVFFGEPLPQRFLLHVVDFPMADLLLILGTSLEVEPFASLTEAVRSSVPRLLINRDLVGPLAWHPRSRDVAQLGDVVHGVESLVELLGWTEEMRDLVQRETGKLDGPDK
Protocol: All of the enzymatic reactions were conducted at 37°C for 30 min. […] The compounds were diluted in 10% DMSO and 5 ul of the dilution was added to each reaction mixture (50 ul). The assay was performed by quantitating the amount of fluorescent product generated from the enzyme reaction. Fluorescence intensity is then analyzed at excitation wavelength of 350–360 nm and emission wavelength of 450–460 nm on a SpectraMax M5 microtiter plate reader. The IC50 values were calculated using Prism GraphPad software.

inhibition at 10 µM (SIRT3) | Compound | inhibition at 1 µM (THP-1 cells) | also measured
26.4 ± 1.78% | C=CC(=O)Nc1ccc(-c2cc(C(=O)Nc3ccc(F)cc3)c3ccccc3n2)cc1 [Compound P14, 2-(4-Acryloylamino-phenyl)-quinoline-4-carboxylic acid (4-fluoro-phenyl)-amide] | 53.2 ± 4.26% | –
42.8 ± 1.26% | C=CC(=O)Nc1ccc(-c2cc(C(=O)Nc3cc(OC)cc(OC)c3)c3ccccc3n2)cc1 [Compound P15, 2-(4-Acryloylamino-phenyl)-quinoline-4-carboxylic acid (3,5-dimethoxy-phenyl)-amide] | 49.6 ± 2.52% | –
28.4 ± 1.85% | C=CC(=O)Nc1ccc(-c2cc(C(=O)Nc3ccc(OC)cc3)c3ccccc3n2)cc1 [Compound P16, 2-(4-Acryloylamino-phenyl)-quinoline-4-carboxylic acid (4-methoxy-phenyl)-amide] | 13.3 ± 1.23% | –
29.6 ± 1.43% | C=CC(=O)Nc1ccc(-c2cc(C(=O)Nc3ccc(OCC)cc3)c3ccccc3n2)cc1 [Compound P17, 2-(4-Acryloylamino-phenyl)-quinoline-4-carboxylic acid (4-ethoxy-phenyl)-amide] | 13.8 ± 1.01% | –
30.6 ± 2.89% | C=CC(=O)Nc1ccc(-c2cc(C(=O)Nc3ccc(CCCCC)cc3)c3ccccc3n2)cc1 [Compound P18, 2-(4-Acryloylamino-phenyl)-quinoline-4-carboxylic acid (4-pentyl-phenyl)-amide] | 30 ± 1.39% | –
45.1 ± 2.55% | C=CC(=O)Nc1ccc(-c2cc(C(=O)Nc3ccc4c(c3)OCO4)c3ccccc3n2)cc1 [Compound P20, 2-(4-Acryloylamino-phenyl)-quinoline-4-carboxylic acid benzo [1,3]dioxol-5-ylamide] | 28.1 ± 1.76% | –
22.2 ± 1.72% | C=CC(=O)Nc1ccc(-c2cc(C(=O)Nc3cccc(OC)c3)c3ccccc3n2)cc1 [Compound P21, 2-(4-Acryloylamino-phenyl)-quinoline-4-carboxylic acid (3-methoxy-phenyl)-amide] | 35.4 ± 1.58% | –

Second part, the molecule before the results:

Compound | inhibition at 10 µM (SIRT3) | inhibition at 1 µM (THP-1 cells) | also measured
Nc1ccn([C@@H]2O[C@H](CO)[C@@H](O)[C@@H]2O)c(=O)n1 [Ara-C, Cytarabine, reference compound] | – | 80.4 ± 3.22% | induction of apoptosis [1]: obvious apoptosis; IC50 (THP-1 cells; 72 h, CCK-8, read-out: IC50 growth inhibition THP-1): 520 nM; IC50 (MV4-11 cells): 540 nM; IC50 (MOLM-13 cells): 60 nM; IC50 (SEM cells): 60 nM
c1cncc(-c2c[nH]nn2)c1 [Compound 3-TYP] | – | – | IC50 (SIRT2): 92 nM; IC50 (SIRT1): 88 nM
C=CC(=O)Nc1ccc(-c2cc(C(=O)Nc3ccc(Br)cc3)c3ccccc3n2)cc1 [Compound P10, 2-(4-Acryloylamino-phenyl)-quinoline-4-carboxylic acid (4-bromo-phenyl)-amide] | 26.8 ± 1.88% | 44.3 ± 1.96% | –
C=CC(=O)Nc1ccc(-c2cc(C(=O)Nc3ccc(Cl)cc3)c3ccccc3n2)cc1 [Compound P11, 2-(4-Acryloylamino-phenyl)-quinoline-4-carboxylic acid (4-chloro-phenyl)-amide] | 35.7 ± 1.54% | 58 ± 2.08% | –
C=CC(=O)Nc1ccc(-c2cc(C(=O)Nc3ccc(C)cc3)c3ccccc3n2)cc1 [Compound P12, 2-(4-Acryloylamino-phenyl)-quinoline-4-carboxylic acid p-tolylamide] | 38.9 ± 2.62% | 72.8 ± 3.25% | –
C=CC(=O)Nc1ccc(-c2cc(C(=O)Nc3ccc(CC)cc3)c3ccccc3n2)cc1 [Compound P13, 2-(4-Acryloylamino-phenyl)-quinoline-4-carboxylic acid (4-ethyl-phenyl)-amide] | 40.2 ± 2.91% | 59.9 ± 3.27% | –
